EC50 and CC50 data for 13 compounds are collected here from patent US20260325561A1, “4'-SUBSTITUTED NUCLEOSIDES AND NUCLEOTIDES AS ANTIVIRAL AGENTS” (THE SCRIPPS RESEARCH INSTITUTE, priority 2023, published 2026).

Structures are written as SMILES.

One data set has as its system HCMV. In words: HCMV/HFF antiviral assay. The data set is classed as cell-based. The following applies: Human betaherpesvirus 5, HFF.
A short description of data set [1]: in vitro. The following applies: human, hela-ace2 cells.
In a further data set the test system is SARS-CoV-2. In words: microbe, parasite or virus in culture. The data set is classed as cell-based, SARS-CoV-2 strain USA-WA1/2020. The following applies: Severe acute respiratory syndrome coronavirus 2, HeLa-ACE2, 24 h, read-out: SARS-CoV-2 / HeLa-ACE2 EC50.
A short description of data set [2]: in vitro. The following applies: human, hep2 cells.
Data set [3] is described as follows: in vitro. Particulars: human, h1 hela cells.
A further data set deals with HRV 14. The data set can be described thus: microbe, parasite or virus in culture. The data set is classed as cell-based, Human Rhinovirus 14 strain 1059. Particulars: Rhinovirus B, H1-HeLa, 48 h, read-out: HRV / H1 HeLa B 14 EC50.
In a further data set the test system is DENV-2. The data set can be described thus: microbe, parasite or virus in culture. The data set is classed as cell-based, DENV-2 16681. Particulars: Dengue virus, DENV2, HepG2, 24 h, read-out: DENV-2 / HepG2 EC50.
Data set [4] in a line: in vitro. The following applies: human, hepg2 cells.
The nature of a further data set: Cytotoxicity, HFF. The data set is classed as cell-based. Particulars: human, hff cells; read-out: HCMV/HFF CC50.
Another data set concerns RSV A2. The data set can be described thus: microbe, parasite or virus in culture. The data set is classed as cell-based. The following applies: human respiratory syncytial virus, HEp-2, 72 h, read-out: RSV A2 / Hep2 EC50.
Another data set deals with HRV 16. In words: microbe, parasite or virus in culture. Format: cell-based, Human Rhinovirus 16 strain 11757. Particulars: Rhinovirus A, H1-HeLa, 48 h, read-out: HRV / H1 HeLa A16 EC50.

For `Nc1ncnc2c1ccn2[C@@H]1O[C@](F)(CO)[C@@H](O)[C@]1(F)Cl` [Example 6, (2S,3R,4S,5R)-5-(4-amino-7H-pyrrolo[2,3-d]pyrimidin-7-yl)-4-chloro-2,4-difluoro-2-(hydroxymethyl)tetrahydrofuran-3-ol], the EC50 with HCMV, in the data set with SARS-CoV-2, in the data set on HRV 14, in the data set on DENV-2 and in the data set with RSV A2 was more than 10 µM each time. The CC50 at 24 h in “in vitro [1]” was more than 99 µM. Moreover, the CC50 in “in vitro [2]” was more than 99 µM; in the data set “in vitro [3]” it was more than 99 µM; in “Cytotoxicity, HFF” it was more than 99 µM. Besides, the CC50 at 72 h in “in vitro [4]” was more than 99 µM.
Consider `[N-]=[N+]=N[C@]1(CO)O[C@@H](n2ccc3c(N)ncnc32)[C@@](F)(Cl)[C@@H]1O` [Example 7, (2R,3R,4S,5R)-5-(4-amino-7H-pyrrolo[2,3-d]pyrimidin-7-yl)-2-azido-4-chloro-4-fluoro-2-(hydroxymethyl)tetrahydrofuran-3-ol], for which the EC50 with HCMV, in the data set with SARS-CoV-2, in the data set with HRV 14, in the data set on DENV-2 and in the data set on RSV A2 was more than 10 µM in each case. This compound returned a CC50 at 24 h in the data set “in vitro [1]” of more than 99 µM. For the same compound, the CC50 is more than 99 µM in the data set “in vitro [2]”; more than 99 µM in the data set “in vitro [3]”; more than 99 µM in “Cytotoxicity, HFF”. Moreover, in the data set “in vitro [4]”, the CC50 at 72 h was more than 99 µM.
As for `O=c1[nH]cnc2c1ccn2[C@@H]1O[C@](F)(CO)[C@@H](O)[C@H]1O` [Example 16, 7-((2R,3R,4S,5S)-5-fluoro-3,4-dihydroxy-5-(hydroxymethyl)tetrahydrofuran-2-yl)-3,7-dihydro-4H-pyrrolo[2,3-d]pyrimidin-4-one], the EC50 in the data set with HCMV, in the data set on SARS-CoV-2, in the data set with HRV 16, with HRV 14, in the data set with DENV-2 and in the data set on RSV A2 was more than 10 µM throughout. The compound also yielded a CC50 at 24 h in the data set “in vitro [1]” of more than 99 µM. The CC50 in the data set “in vitro [2]” was more than 99 µM; in “in vitro [3]”, more than 99 µM; in “Cytotoxicity, HFF”, more than 99 µM. For the same compound, in the data set “in vitro [4]”, the CC50 at 72 h is more than 99 µM.
Turning to `OC[C@@]1(F)O[C@@H](n2cc(Cl)c3cncnc32)[C@H](O)[C@@H]1O` [Example 36, (2S,3S,4R,5R)-5-(5-chloro-7H-pyrrolo[2,3-d]pyrimidin-7-yl)-2-fluoro-2-(hydroxymethyl)tetrahydrofuran-3,4-diol], the EC50 in the data set on HCMV is 0.1 to 1 µM; in the data set on SARS-CoV-2, 0.1 to 1 µM; in the data set with HRV 14, more than 10 µM; with DENV-2, less than 0.1 µM; in the data set with RSV A2 it was 1 to 10 µM. In the data set “in vitro [1]”, this compound showed a CC50 at 24 h of 1 to 10 µM. The CC50 in “in vitro [2]” was 10 to 99 µM; in “in vitro [3]”, 10 to 99 µM; in the data set “Cytotoxicity, HFF”, 1 to 10 µM. In the data set “in vitro [4]”, this compound showed a CC50 at 72 h of less than 1 µM.
As for `C#C[C@]1(O)[C@H](n2ccc(N)nc2=O)O[C@](F)(CO)[C@H]1O` [Example 44, 4-amino-1-((2R,3R,4S,5S)-3-ethynyl-5-fluoro-3,4-dihydroxy-5-(hydroxymethyl)tetrahydrofuran-2-yl)pyrimidin-2(1H)-one], the CC50 at 24 h in the data set “in vitro [1]” was more than 99 µM. Moreover, the EC50 in the data set with SARS-CoV-2, in the data set on HRV 16, with HRV 14, in the data set with DENV-2 and in the data set on RSV A2 was more than 10 µM in each case. Further, the CC50 in the data set “in vitro [2]” and in “in vitro [3]” was 10 to 99 µM throughout. Besides, the CC50 at 72 h in “in vitro [4]” was more than 99 µM.
As for `CC(=O)O[C@H]1[C@H](n2ncc(=O)[nH]c2=O)O[C@](F)(COC(=O)c2ccccc2)[C@H]1OC(C)=O` [Example 45, (2S,3S,4R,5R)-2-((benzoyloxy)methyl)-5-(3,5-dioxo-4,5-dihydro-1,2,4-triazin-2(3H)-yl)-2-fluorotetrahydrofuran-3,4-diyl diacetate], the CC50 at 24 h in the data set “in vitro [1]” was more than 99 µM. Further, the EC50 in the data set with SARS-CoV-2, with HRV 16, in the data set with HRV 14, in the data set on DENV-2 and with RSV A2 was more than 10 µM in each case. Besides, the CC50 in “in vitro [2]” and in the data set “in vitro [3]” was more than 99 µM throughout. In addition, the CC50 at 72 h in “in vitro [4]” was more than 99 µM.
With `N#Cc1ncnc2c1ccn2[C@@H]1O[C@](F)(COC(=O)c2ccccc2)[C@@H](O)[C@H]1OC(=O)c1ccccc1` [Example 50, ((2S,3S,4R,5R)-4-(benzoyloxy)-5-(4-cyano-7H-pyrrolo[2,3-d]pyrimidin-7-yl)-2-fluoro-3-hydroxytetrahydrofuran-2-yl)methyl benzoate], in “in vitro [1]”, the CC50 at 24 h was 10 to 99 µM. For the same compound, the EC50 in the data set with SARS-CoV-2 is more than 10 µM; in the data set on HRV 16, more than 10 µM; in the data set on HRV 14 it was more than 10 µM; with DENV-2, 0.1 to 1 µM; with RSV A2, more than 10 µM. The CC50 in the data set “in vitro [2]” and in the data set “in vitro [3]” was 10 to 99 µM throughout. In “in vitro [4]”, this compound showed a CC50 at 72 h of 1 to 10 µM.
In the case of `CNc1nc(N)nc2c1ccn2[C@@H]1O[C@](F)(COC(=O)c2ccccc2)[C@@H](O)[C@H]1O` [Example 56, ((2S,3S,4R,5R)-5-(2-amino-4-(methylamino)-7H-pyrrolo[2,3-d]pyrimidin-7-yl)-2-fluoro-3,4-dihydroxytetrahydrofuran-2-yl)methyl benzoate], the CC50 at 24 h in the data set “in vitro [1]” was more than 99 µM. The EC50 with SARS-CoV-2, in the data set on HRV 16, in the data set on HRV 14, in the data set with DENV-2 and in the data set with RSV A2 was more than 10 µM in each case. Further, the CC50 in the data set “in vitro [2]” and in the data set “in vitro [3]” was more than 99 µM throughout. The CC50 at 72 h in the data set “in vitro [4]” is more than 99 µM.
Consider `CCOc1nc(N)nc2c1ncn2[C@@H]1O[C@](F)(CO)[C@@H](O)C1(F)F` [Example 60, (2S,3R,5R)-5-(2-amino-6-ethoxy-9H-purin-9-yl)-2,4,4-trifluoro-2-(hydroxymethyl)tetrahydrofuran-3-ol], for which the EC50 in the data set on HCMV, in the data set on SARS-CoV-2, with HRV 14, in the data set with DENV-2 and in the data set with RSV A2 was more than 10 µM throughout. In the data set “in vitro [1]”, this compound returned a CC50 at 24 h of more than 99 µM. The CC50 in the data set “in vitro [2]” is more than 99 µM; in the data set “in vitro [3]”, more than 99 µM; in the data set “Cytotoxicity, HFF”, more than 99 µM. The CC50 at 72 h in the data set “in vitro [4]” is more than 99 µM.
On to `CCOc1nc(N)nc2c1ncn2[C@@H]1O[C@](F)(CO)[C@@H](O)[C@@]1(C)Cl` [Example 63, (2S,3R,4R,5R)-5-(2-amino-6-ethoxy-9H-purin-9-yl)-4-chloro-2-fluoro-2-(hydroxymethyl)-4-methyltetrahydrofuran-3-ol], for which the EC50 in the data set with HCMV, with SARS-CoV-2, in the data set on HRV 14, in the data set with DENV-2 and in the data set on RSV A2 was more than 10 µM throughout. The compound also returned a CC50 at 24 h in “in vitro [1]” of more than 99 µM. The CC50 in the data set “in vitro [2]” and in the data set “in vitro [3]” was more than 99 µM each time. In the data set “in vitro [4]”, this compound showed a CC50 at 72 h of 10 to 99 µM.
In the case of `CCOc1nc(N)nc2c1ncn2[C@@H]1O[C@](F)(CO)[C@@H](O)[C@]1(F)Cl` [Example 66, (2S,3R,4S,5R)-5-(2-amino-6-ethoxy-9H-purin-9-yl)-4-chloro-2,4-difluoro-2-(hydroxymethyl)tetrahydrofuran-3-ol], the EC50 in the data set on HCMV, in the data set with SARS-CoV-2, in the data set with HRV 14, in the data set on DENV-2 and in the data set on RSV A2 was more than 10 µM each time. This compound showed a CC50 at 24 h in “in vitro [1]” of more than 99 µM. In addition, the CC50 in “in vitro [2]” and in “in vitro [3]” was more than 99 µM throughout. Further, the CC50 at 72 h in the data set “in vitro [4]” is more than 99 µM.
Consider `CCOc1nc(N)nc2c1ncn2[C@@H]1O[C@](F)(COP(=O)(N[C@@H](C)C(=O)OC(C)C)Oc2ccccc2)[C@@H](O)C1(F)F` (stereo partly drawn) [Example 69, isopropyl ((((2S,3R,5R)-5-(2-amino-6-ethoxy-9H-purin-9-yl)-2,4,4-trifluoro-3-hydroxytetrahydrofuran-2-yl)methoxy)(phenoxy)phosphoryl)-L-alaninate], for which the EC50 with HCMV is more than 10 µM; in the data set with SARS-CoV-2, more than 10 µM; in the data set on HRV 14, more than 10 µM; in the data set with DENV-2 it was 1 to 10 µM; in the data set on RSV A2 it was more than 10 µM. The same compound gave a CC50 at 24 h in the data set “in vitro [1]” of 10 to 99 µM. The CC50 in the data set “in vitro [2]” and in “in vitro [3]” was 10 to 99 µM each time. This compound yielded a CC50 at 72 h in the data set “in vitro [4]” of 10 to 99 µM.
As for `Nc1nc2c(ncn2[C@@H]2O[C@](F)(CO)[C@@H](O)C2(F)F)c(=O)[nH]1` [Example 71, 2-amino-9-((2R,4R,5S)-3,3,5-trifluoro-4-hydroxy-5-(hydroxymethyl)tetrahydrofuran-2-yl)-1,9-dihydro-6H-purin-6-one], the EC50 in the data set with HCMV, in the data set with SARS-CoV-2, in the data set with HRV 14, in the data set on DENV-2 and in the data set on RSV A2 was more than 10 µM throughout. The CC50 at 24 h in the data set “in vitro [1]” was more than 99 µM. Also, the CC50 in the data set “in vitro [2]” and in the data set “in vitro [3]” was more than 99 µM throughout. In the data set “in vitro [4]”, this compound had a CC50 at 72 h of more than 99 µM.
